Data published in patent US20170128480A1, “Cardiac Glycosides for the Treatment of Hypercholesterolemia” (priority 2015, published 2017).

Experiments:
[1] = test system: human ApoB-100; assay: Drug treatment of humanized FRGN avatar mice, serum human ApoB-100 and albumin by ELISA; type: in vivo; conditions: i.p., 48-hour period, Digoxin 0.5 mg/kg, Proscillaridin 0.6 mg/kg/day, p≦0.05
Protocol: Prior to any drug or vehicle treatment, the ratio of ApoB-100 to albumin is approximately 30% higher in the serum of avatars repopulated with hepatocytes from donor A compared to donor B (p=0.032) (FIG. 8A). Human ApoB-100 and albumin is then measured before and after treatment with DMSO (vehicle), Digoxin or Proscillaridin, over a 48-hour period of time (FIG. 8C). […] The concentration of human albumin is unaffected in the serum of the same animals (FIG. 8B).
A sandwich ELISA to detect human albumin in tissue culture supernatants and mouse sera uses a 1:100 dilution of a capture human albumin coating antibody (Bethyl laboratories, A80-129A) and a 1:85,000 dilution of a Horseradish Peroxidase (HRP) conjugated human albumin detection antibody (Bethyl laboratories, A80-129P). Bound antibody is detected using 3,3′,5,5′-tetramethylbenzidine (TMB) and the concentration of albumin in each sample is determined by comparing to a standard curve (Bethyl laboratories, RS10-110). Human lipidated apoB-100 is detected using a commercial sandwich ELISA (product code: 3715-1H-6; MabTech, Inc.) and detected using TMB. The concentration of apoB-100 is determined by comparing to a standard curve using lipidated apoB-100 supplied by the manufacturer.
Fah^−/−Rag2^−/−IL2 gr^−/−NOD (FRGN) mice are generated and supplied by Dr. Markus Grompe. […]

[2] = test system: hepatocytes; assay: Lipoprotein profile (VLDL/LDL/HDL) of hepatocyte secretion by FPLC; type: cell-based; conditions: 310 nm; 4-hr collection period
Protocol: FIGS. 13A-B (A) is a graph of the results of a FPLC showing the impact of Digoxin and Proscillaridin on the increase in the size of LDL/VLDL particles and the increase of HDL particle number in serum (FIG. 13B, enhanced).
The experiment is a simple collection of cell culture media and then uses a known assay to measure VLDL/LDL/HDL by HPLC.
Cell culture media (the serum samples of example 5) is collected and then using a known assay (see, Example 3) VLDL/LDL/HDL is measured by FPLC HPLC. The experiment was performed by Evanthia Pashos Ph.D, a post-doctoral researcher at the University of Pennsylvania. Dr. Pashos was instructed what concentration of drugs to use, how long to incubate, and to record lipoprotein profiles for HDL, LDL, VLDL. […] Hepatocyte secretion was collected and analyzed over a 4-hr collection period.

[3] = test system: FH patient-specific iPSC-derived hepatocytes; assay: ApoB-100 ELISA on culture medium of FH patient-specific iPSC-derived hepatocytes ([…] screen and triplicate validation); type: cell-based, human; conditions: tested in triplicate; FIG. 3
Protocol: ApoB-100 secretion is measured by enzyme linked immunosorbent assay (ELISA) using an antibody that specifically detects lipidated apoB-100, which represents lipoprotein particles secreted by the iPSC-derived hepatocytes. […] FH patient-specific iPSC cells are differentiated to hepatocyte-like cells in 96-well plates and the levels of lipidated ApoB-100 are measured before and after the application of 2320 small molecules from the [sequence] collection drug library (FIGS. 2A-B).
Using the before-drug and after-drug ApoB-100 concentration for each individual well (see the Examples below; each well represents 1 drug), a post:pre drug ratio of ApoB-100 is generated (referred to as delta-apoB-100; FIGS. 2A and 2B) and primary hits are identified by z-score analysis (FIG. 2B) as described by Zhang (Zhang, X. D., J Biomol Screen 16, 775-785 (2011)). A z-score is calculated for each compound, representing a multiple of the standard deviation of all the compounds included in the parent plate (30 plates total—FIG. 2A). […]
Pre-drug and post-drug apoB-100 concentrations are determined for each compound in the [sequence] library using a standard curve and four-parameter logistic (4PL) regression model. […] Primary hits are validated in secondary replicate experiments (n=3), and statistical significance is determined by a Student's t-test. […]

[4] = target: Na+/K+-ATPase α2 subunit (Rattus norvegicus, UniProt P06686); conditions: Kolansky et al. 1992; cited from earlier work
[5] = target: Na+/K+-ATPase α3 subunit (Rattus norvegicus, UniProt P06687); conditions: Kolansky et al. 1992; cited from earlier work

| Compound | serum human ApoB-100 levels [1] | HDL secretion [2] | VLD/LDL particle size [2] | VLD/LDL total quantity [2] | Reductions of ApoB-100 levels, of DMSO controls [3] | ouabain sensitivity [4] | ouabain sensitivity [5] |
| --- | --- | --- | --- | --- | --- | --- | --- |
| CC1O[C@@H](O[C@H]2C(O)C[C@H](O[C@H]3C(O)C[C@H](OC4CC[C@@]5(C)[C@H](CC[C@@H]6[C@@H]5C[C@@H](O)[C@]5(C)[C@@H](C7=CC(=O)OC7)CC[C@]65O)C4)OC3C)OC2C)CC(O)[C@@H]1O (stereo partly drawn) [Digoxin] | significantly reduces serum ApoB-100 levels | increase HDL secretion | increase VLD/LDL particle size | reduce VLD/LDL total quantity |  |  |  |
| C[C@@H]1O[C@@H](O[C@H]2C[C@@H](O)[C@]3(CO)[C@H]4[C@H](O)C[C@]5(C)[C@@H](C6=CC(=O)OC6)CC[C@]5(O)[C@@H]4CC[C@]3(O)C2)[C@H](O)[C@H](O)[C@H]1O [Ouabain, Ouabain (Strophanthin)] |  |  |  |  | 71% | approximately 40 nM | ~80 nM |
| C[C@@H]1OC(O[C@@H]2C=C3CC[C@@H]4[C@H](CC[C@]5(C)[C@@H](c6ccc(=O)oc6)CC[C@]45O)[C@@]3(C)CC2)[C@H](O)C(O)C1O (stereo partly drawn) [Proscillaridin] | significantly reduces serum ApoB-100 levels | increase HDL secretion | increase VLD/LDL particle size | reduce VLD/LDL total quantity |  |  |  |
| Gitoxin |  |  |  |  | 27% |  |  |
